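How tested: cells in 96-well plates exposed to compound for 48 hours at five concentrations. Abbreviation: GI50, concentration required for 50% inhibition of growth.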 Active and inactive are the calls of the source. Cut-off read from the data, not from the text of the source: active = GI50 up to about 1.1 µM and inactive = higher.
Legend:
Test in all cases: NCI anticancer screen, dose series, 48 h
TK-10 = system: TK-10
RXF 393 = system: RXF 393
SR = system: SR
MDA-MB-435 = system: MDA-MB-435
PC-3 = system: PC-3
CAKI-1 = system: CAKI-1
NCI-H23 = system: NCI-H23
M14 = system: M14
HOP-92 = system: HOP-92
HCT-116 = system: HCT-116
SNB-19 = system: SNB-19
Hs-578T = system: Hs-578T
OVCAR-3 = system: OVCAR-3
UACC-62 = system: UACC-62
IGROV-1 = system: IGROV-1
LOX IMVI = system: LOX IMVI
SK-MEL-2 = system: SK-MEL-2
COLO 205 = system: COLO 205
OVCAR-5 = system: OVCAR-5
MDA-MB-231 = system: MDA-MB-231

Row | Structure (SMILES) | GI50 (TK-10) | GI50 (RXF 393) | GI50 (SR) | GI50 (MDA-MB-435) | GI50 (PC-3) | GI50 (CAKI-1) | GI50 (NCI-H23) | GI50 (M14) | GI50 (HOP-92) | GI50 (HCT-116) | GI50 (SNB-19) | GI50 (Hs-578T) | GI50 (OVCAR-3) | GI50 (UACC-62) | GI50 (IGROV-1) | GI50 (LOX IMVI) | GI50 (SK-MEL-2) | GI50 (COLO 205) | GI50 (OVCAR-5) | GI50 (MDA-MB-231)
1 | OC(CC(CC(O)(C(F)(F)F)C(F)(F)F)=NN=C(CC(O)(C(F)(F)F)C(F)(F)F)CC(O)(C(F)(F)F)C(F)(F)F)(C(F)(F)F)C(F)(F)F | > 10 µM (inactive) | > 10 µM (inactive) | > 10 µM (inactive) | > 10 µM (inactive) | > 10 µM (inactive) | > 10 µM (inactive) | > 10 µM (inactive) | > 10 µM (inactive) | > 10 µM (inactive) | > 10 µM (inactive) | > 10 µM (inactive) | > 10 µM (inactive) | > 10 µM (inactive) | > 10 µM (inactive) | > 10 µM (inactive) | > 10 µM (inactive) | > 10 µM (inactive) | > 10 µM (inactive) | > 10 µM (inactive) | > 10 µM (inactive)
2 | CCCCCCCCCCCCCCCCCCOCC(COCCOCC[N+]1(CCCCCC(=O)[O-])CCCC1)Oc1ncccn1 (stereo not given) | 4.06 µM (inactive) | 1.4 µM (inactive) | 3.18 µM (inactive) | 8.79 µM (inactive) | 0.643 µM (active) | 9.51 µM (inactive) | 4.88 µM (inactive) | 7.41 µM (inactive) | 1.05 µM (active) | 1.82 µM (inactive) | 2.17 µM (inactive) | 13.6 µM (inactive) | 5.2 µM (inactive) | 3.35 µM (inactive) | 0.622 µM (active) | 2.88 µM (inactive) | 6.05 µM (inactive) | 1.11 µM (active) | 2.99 µM (inactive) | 8.22 µM (inactive)
3 | COC(=O)[C@@H]1[C@@H]2NC(=S)N[C@@]1(C)Oc1ccccc12 | > 100 µM (inactive) | > 100 µM (inactive) | 95.3 µM (inactive) | 10.1 µM (inactive) | 63.5 µM (inactive) | 76.9 µM (inactive) | 42.6 µM (inactive) | 42.8 µM (inactive) | 49.9 µM (inactive) | 67.6 µM (inactive) | 49 µM (inactive) | 51.9 µM (inactive) | > 100 µM (inactive) | 78.3 µM (inactive) | 49 µM (inactive) | 37.6 µM (inactive) | > 100 µM (inactive) | 37.5 µM (inactive) | 60.4 µM (inactive) | 74.6 µM (inactive)
4 | CC(=O)Nc1ccc2cc3[nH]c4cc(NC(C)=O)ccc4c3nc2c1 | > 100 µM (inactive) | > 100 µM (inactive) | 61.1 µM (inactive) | > 100 µM (inactive) | > 100 µM (inactive) | > 100 µM (inactive) | > 100 µM (inactive) | > 100 µM (inactive) | > 100 µM (inactive) | > 100 µM (inactive) | > 100 µM (inactive) | > 100 µM (inactive) | > 100 µM (inactive) | > 100 µM (inactive) | > 100 µM (inactive) | > 100 µM (inactive) | > 100 µM (inactive) | > 100 µM (inactive) | > 100 µM (inactive) | > 100 µM (inactive)
5 | C=C(Br)C(Br)(CCl)CCC(Cl)C(C)C.C=C(Cl)C(Br)(CCl)CCC(Cl)C(C)C (stereo not given) | 2.14 µM (inactive) | 2.18 µM (inactive) | 0.442 µM (active) | 1.93 µM (inactive) | 2.91 µM (inactive) | 2.81 µM (inactive) | 1.79 µM (inactive) | 1.89 µM (inactive) | 1.87 µM (inactive) | 1.75 µM (inactive) | 3 µM (inactive) | 2.49 µM (inactive) | 2.29 µM (inactive) | 1.31 µM (inactive) | 1.88 µM (inactive) | 0.299 µM (active) | 1.47 µM (inactive) | 2.13 µM (inactive) | 2.84 µM (inactive) | 1.24 µM (inactive)
6 | COc1cc2c(cc1OC)C1CCc3ccccc3CN1CC2 (stereo not given) | > 100 µM (inactive) | > 100 µM (inactive) | > 100 µM (inactive) | > 100 µM (inactive) | > 100 µM (inactive) | > 100 µM (inactive) | > 100 µM (inactive) | > 100 µM (inactive) | > 100 µM (inactive) | > 100 µM (inactive) | > 100 µM (inactive) | > 100 µM (inactive) | > 100 µM (inactive) | > 100 µM (inactive) | > 100 µM (inactive) | > 100 µM (inactive) | > 100 µM (inactive) | > 100 µM (inactive) | > 100 µM (inactive) | > 100 µM (inactive)
7 | COC12C(COC(=O)NCCO)C3=C(C(=O)C(C)=C(N)C3=O)N1CC1NC12 (stereo not given) | 83.2 µM (inactive) | 24 µM (inactive) | 35.2 µM (inactive) | 140 µM (inactive) | 35.2 µM (inactive) | 2.77 µM (inactive) | 4.94 µM (inactive) | 11.5 µM (inactive) | 30 µM (inactive) | 18.9 µM (inactive) | 16.4 µM (inactive) | 198 µM (inactive) | 68.7 µM (inactive) | 8.11 µM (inactive) | 29.2 µM (inactive) | 13.8 µM (inactive) | 30.9 µM (inactive) | 37.7 µM (inactive) | 28.7 µM (inactive) | 233 µM (inactive)
8 | O=C(O)c1cccc(CC(Br)C(=O)O)c1 (stereo not given) | > 100 µM (inactive) | > 100 µM (inactive) | > 100 µM (inactive) | > 100 µM (inactive) | > 100 µM (inactive) | > 100 µM (inactive) | > 100 µM (inactive) | > 100 µM (inactive) | > 100 µM (inactive) | > 100 µM (inactive) | > 100 µM (inactive) | > 100 µM (inactive) | > 100 µM (inactive) | > 100 µM (inactive) | > 100 µM (inactive) | > 100 µM (inactive) | > 100 µM (inactive) | > 100 µM (inactive) | > 100 µM (inactive) | > 100 µM (inactive)
9 | COc1cc2cc(C(=O)N3CC(CCl)c4ccc(N(C)C)cc43)[nH]c2c(OC)c1OC (stereo not given) | 0.13 µM (active) | 0.0267 µM (active) | 0.0151 µM (active) | 0.168 µM (active) | 0.0676 µM (active) | 0.0395 µM (active) | 0.0303 µM (active) | 0.0923 µM (active) | 0.0861 µM (active) | 0.0542 µM (active) | 0.304 µM (active) | 0.294 µM (active) | 0.0959 µM (active) | 0.0592 µM (active) | 0.0601 µM (active) | 0.0755 µM (active) | 0.063 µM (active) | 0.0851 µM (active) | 0.0853 µM (active) | 0.234 µM (active)

Source: ChEMBL document CHEMBL1201862, “PubChem BioAssay data set” (2004)
